27 compounds from ChEMBL document CHEMBL4813957, “Antitubercular properties of thiazolidin-4-ones - A review” (Eur J Med Chem, 2021) can be followed below.

≈ marks a conversion by molar mass, not a printed value. Structures can show the parent of a compound that is named as a salt.

The subject of data set [1] is Mycobacterium tuberculosis. As to the kind of experiment: Antimycobacterial activity against Mycobacterium tuberculosis H37Rv by Lowenstein-Jensen method. It counts as functional.
The test system of data set [2] is Mycobacterium tuberculosis. As to the kind of experiment: Antimycobacterial activity against Mycobacterium tuberculosis H37Rv assessed as growth inhibition at 6.25 ug/ml by BACTEC radiometric method relative to control. It counts as functional. Conditions: read-out: GI.
Data set [3] has as its system Mycobacterium tuberculosis. Kind of data set: Antimycobacterial activity against Mycobacterium tuberculosis. It counts as functional.
Data set [4] concerns Mycobacterium tuberculosis. As to the kind of experiment: Antimycobacterial activity against Mycobacterium tuberculosis H37Rv measured after 12 to 28 days by Lowenstein-Jensen method. It counts as functional. Conditions: time 12-28 day.
Data set [5] concerns Mycobacterium tuberculosis. Kind of data set: Antimycobacterial activity against Mycobacterium tuberculosis H37Ra ATCC 25177 incubated for 7 days by microplate alamar blue assay. The data set is classed as functional. Conditions: H37Ra ATCC 25177, 168 h, time 7 day. (Alamar Blue is a resazurin reagent that responds to reducing activity.)
Data set [6] concerns Mycobacterium tuberculosis. Kind of data set: Bactericidal activity against Mycobacterium tuberculosis H37Ra ATCC 25177 assessed as ratio of MBC to MIC. The data set is classed as functional.
Data set [7] is described as follows: Selectivity index, ratio of IC50 for African green monkey Vero cells to MIC for antitubercular activity against Mycobacterium tuberculosis H37Ra ATCC 25177. It counts as toxicity.
Data set [8] concerns Mycobacterium tuberculosis. Kind of data set: Antimycobacterial activity against Mycobacterium tuberculosis H37Rv 27294 by microplate alamar blue assay. It counts as functional.
Data set [9] can be described thus: Cytotoxicity against African green monkey Vero cells after 72 hrs by cell titer glo luminescent cell viability assay. The data set is classed as cell-based. Conditions: chlorocebus sabaeus. (Cellular ATP, detected with luciferase, serves as a proxy for viable cell number.)
The subject of data set [10] is Mycobacterium tuberculosis. Kind of data set: Antimycobacterial activity against Mycobacterium tuberculosis H37Rv assessed as growth inhibition at 12.5 ug/ml by BACTEC radiometric method relative to control. It counts as functional. The settings on record: read-out: GI.
For data set [11], the system named is Mycobacterium tuberculosis. Kind of data set: Antimycobacterial activity against Mycobacterium tuberculosis H37Rv assessed as growth inhibition at 50 ug/ml by Lowenstein-Jensen method relative to control. Conditions: read-out: GI. The data set is classed as functional.
For data set [12], the system named is Mycobacterium tuberculosis. Kind of data set: Antimycobacterial activity against Mycobacterium tuberculosis H37Rv incubated for 45 days by Lowenstein-Jensen method. It counts as functional. The settings on record: 1080 h, time 45 day.
In data set [13] the test system is Mycobacterium tuberculosis. As to the kind of experiment: Antimycobacterial activity against Mycobacterium tuberculosis H37Rv incubated for 4 weeks. Conditions: 672 h. The data set is classed as functional.
Data set [14] deals with Mycobacterium tuberculosis. Kind of data set: Antimycobacterial activity against Mycobacterium tuberculosis by microplate alamar blue assay. The data set is classed as functional.
Data set [15] concerns Mycobacterium tuberculosis. Kind of data set: Antimycobacterial activity against Mycobacterium tuberculosis H37Ra ATCC 25177 measured on 8th to 12th day by XTT reduction menadione assay. It counts as functional. The settings on record: time 8-12 day. (In general: Formazan colour is commonly taken as a measure of viable cells.)
For data set [16], the system named is Mycobacterium tuberculosis. As to the kind of experiment: Antimycobacterial activity against Mycobacterium tuberculosis H37Rv by filter paper disc diffusion method. It counts as functional.
Data set [17] has as its system Mycobacterium tuberculosis. As to the kind of experiment: Antimycobacterial activity against Mycobacterium tuberculosis H37Rv ATCC27294 incubated for 7 days by microplate alamar blue assay. It counts as functional. Conditions: H37Rv ATCC 27294, 168 h, time 7 day.
The subject of data set [18] is Mycolicibacterium smegmatis. As to the kind of experiment: Antimycobacterial activity against Mycobacterium smegmatis ATCC 35797 incubated for 48 hrs by agar dilution method. The data set is classed as functional.
Data set [19] concerns Mycobacterium tuberculosis. As to the kind of experiment: Antimycobacterial activity against Mycobacterium tuberculosis H37Rv ATCC 27294 incubated for 5 days by microplate alamar blue assay. The settings on record: H37Rv ATCC 27294, 120 h, time 5 day. The data set is classed as functional.
Data set [20] concerns Mycobacterium tuberculosis. Kind of data set: Antimycobacterial activity against Mycobacterium tuberculosis ATCC 27286 assessed as zone of inhibition at 20 ug/ml. The data set is classed as functional. Conditions: read-out: IZ.
Data set [21] deals with Mycobacterium tuberculosis. Kind of data set: Antimycobacterial activity against Mycobacterium tuberculosis H37Rv incubated for 7 days by microplate alamar blue assay. It counts as functional. The settings on record: 168 h, time 7 day.
In data set [22] the test system is Mycobacterium tuberculosis. As to the kind of experiment: Antimycobacterial activity against Mycobacterium tuberculosis H37Rv ATCC27294 measured after 28 days by two-fold serial dilution method. It counts as functional. Conditions: H37Rv ATCC 27294, 672 h, time 28 day.
Data set [23] has as its system Mycobacterium tuberculosis. As to the kind of experiment: Antimycobacterial activity against Mycobacterium tuberculosis H37Rv ATCC 27294 by BACTEC radiometric method. It counts as functional.
Data set [24] has as its system Mycobacterium tuberculosis. Kind of data set: Antimycobacterial activity against Mycobacterium tuberculosis H37Rv incubated for 7 days by resazurin dye based assay. It counts as functional. The settings on record: 168 h, time 7 day.

The term MIC denotes the lowest concentration found to suppress growth. `COc1cc(C2SCC(=O)N2NC2=Nc3ccccc3Sc3ccccc32)cc(OC)c1OC` (configuration not stated): in [1], the MIC stood at 125 µg/mL (≈ 253 µM).
For `COc1ccc(C(=O)Nc2ccc(C(=O)NN3C(=O)CSC3c3ccccc3)cc2)cc1` (configuration not stated), the inhibition of growth at 6.25 µg/mL in [2] was 90%.
The compound `Cc1nc(/N=C2\C(=O)Nc3ccccc32)sc1C(=O)NN1C(=O)CSC1c1ccc(F)cc1` (configuration not stated) displayed an MIC in data set [3] of 0.78 µM (≈ 0.376 µg/mL).
`N#CSc1ccc2nc(NC(=O)CN3C(=O)/C(=C/c4cccc(Br)c4)SC3=S)sc2c1`: the MIC in data set [4] amounted to 25 µg/mL (≈ 45.7 µM).
`NC(=S)N/N=C/c1ccc(OC(=O)CC2SC(=O)NC2=O)c(Br)c1` (configuration not stated) displayed an MIC in [5] of 0.031 µg/mL (≈ 0.0719 µM). The Ratio in data set [6] is 2. Also, the selectivity ratio in data set [7] is more than 10.
As a reminder, the IC90 is the concentration needed for an effect of 90%. A word on the CC50: it is the concentration at which the toxic effect on the cells reaches its halfway point. Take `CCN1C(=O)/C(=C/c2ccccc2F)S/C1=N/NC(=O)c1ccncc1`: the IC90 in data set [8] amounted to 2.95 µg/mL (≈ 7.97 µM). Moreover, it took 22.8 µg/mL (≈ 61.4 µM) to reach half-maximal cytotoxicity in [9] (CC50 at 72 h).
On to `Cc1nc(/N=C2\C(=O)Nc3ccccc32)sc1C(=O)NN1C(=O)CSC1c1ccccc1Cl` (configuration not stated), for which the MIC in data set [3] is 0.78 µM (≈ 0.388 µg/mL).
Turning to `Cc1ccc(N2C(=O)CSC23C(=O)N(CN2CCOCC2)c2ccc(C)cc23)cc1` (configuration not stated), in data set [10], the inhibition of growth at 12.5 µg/mL was 90%.
For the compound `COc1ccc(/C=C2\SC(=S)N(Cc3nnc(-c4cccnc4SCc4ccccc4)o3)C2=O)cc1`, the inhibition of growth at 50 µg/mL in data set [11] worked out at 99%.
Consider `CC[C@@H](CO)NCCN[C@@H](CC)CO` [ETHAMBUTOL HYDROCHLORIDE], for which, in [12], it took 1.45 µM to inhibit growth (MIC).
For `O=C(CNNC(=O)c1ccncc1)COc1ccc(/C=C2\SC(=O)NC2=O)cc1`, the MIC in [13] stood at 50 µg/mL (≈ 121 µM).
In the case of `COc1cc(/C=N/NC(N)=S)ccc1OC(=O)/C=C1\SC(=O)NC1=O`, the minimum inhibitory concentration (MIC) in data set [5] amounted to 0.031 µg/mL (≈ 0.0815 µM). For the same compound, the Ratio in [6] stood at 2. In data set [7], the selectivity ratio was more than 10.
As to `COc1ccc(/C=C2\SC(=O)N(CNNC(=O)c3ccncc3)C2=O)cc1`, in data set [13], the MIC stood at 50 µg/mL (≈ 130 µM).
In [14], `O=C(NN1C(=O)CSC1c1ccccc1O)c1coc2ccc3ccccc3c12` (configuration not stated) registered an MIC of 50 µg/mL (≈ 124 µM).
In the case of `CCN1C(=O)/C(=C/c2ccc(F)cc2)S/C1=N/NC(=O)c1ccncc1`, the 90% effect level in [8] (IC90) was put at 2.95 µg/mL (≈ 7.97 µM). The compound further came in with a CC50 at 72 h in data set [9] of 9.69 µg/mL (≈ 26.2 µM).
Turning to `Cc1cc(C)c2c(c1)C1(SCC(=O)N1c1ccccc1C(=O)O)C(=O)N2` (configuration not stated), in data set [10], the inhibition of growth at 12.5 µg/mL turned out to be 90%.
In data set [14], `O=C(NN1C(=O)CSC1c1ccc(O)cc1)c1coc2ccc3ccccc3c12` (configuration not stated) had an MIC of 50 µg/mL (≈ 124 µM).
For `Cc1cc(NS(=O)(=O)c2ccc(N3C(=O)CSC3c3ccc(C(F)(F)F)cc3)cc2)no1` (configuration not stated), in data set [15], the IC90 turned out to be 0.43 µg/mL (≈ 0.889 µM).
On the same count and under the same terms, the value for `Cc1cc(NS(=O)(=O)c2ccc(N3C(=O)CSC3c3c(Cl)cccc3Cl)cc2)no1` (configuration not stated) was 0.43 µg/mL (≈ 0.888 µM).
For the compound `O=C(NCCCN1c2ccccc2Sc2ccccc21)N1C(=O)/C(=C/c2ccc([N+](=O)[O-])cc2)SC1c1ccc([N+](=O)[O-])cc1` (configuration not stated), the inhibition of growth at 50 µg/mL in [11] came out at 82%.
Compound `Cc1cc(NS(=O)(=O)c2ccc(N3C(=O)CSC3c3ccc(F)cc3)cc2)no1` (configuration not stated) had an IC90 in [15] of 0.43 µg/mL (≈ 0.992 µM).
`NNC(=O)c1ccncc1` [ISONIAZID]: the MIC in data set [16] turned out to be 1.25 µg/mL (≈ 9.11 µM); in data set [17], 0.56 µg/mL (≈ 4.08 µM); in data set [18], 12.5 µg/mL (≈ 91.1 µM); in [19] it was 0.2 µg/mL (≈ 1.46 µM); in data set [21] it was 1.6 µg/mL (≈ 11.7 µM); in [22] it was 0.72 µM (≈ 0.0987 µg/mL). Moreover, in [12], the MIC stood at 0.64 µM (≈ 0.0878 µg/mL). Further, in data set [20], the zone of inhibition at 20 µg/mL amounted to 31 mm.
With `N#Cc1ccc(C2SCC(=O)N2NC(=O)c2[nH]c3ccc(F)cc3c2-c2ccccc2)cc1` (configuration not stated), the MIC in data set [23] was determined as 6.25 µg/mL (≈ 13.7 µM).
The compound `O=C1C(CN2CCOCC2)SC(c2ccc(Cl)cc2)N1c1ccc(Cl)cc1` (configuration not stated) registered an MIC in data set [24] of 25 µg/mL (≈ 59.1 µM).
Take `O=C(NCCCN1c2ccccc2Sc2ccccc21)N1C(=O)/C(=C/c2cccc([N+](=O)[O-])c2)SC1c1cccc([N+](=O)[O-])c1` (configuration not stated): in data set [11], the inhibition of growth at 50 µg/mL was 83%.
In data set [5], `NC(=S)N/N=C/c1ccc(OC(=O)CC2SC(=O)NC2=O)cc1` (configuration not stated) came in with an MIC of 0.031 µg/mL (≈ 0.088 µM). Besides, the Ratio in data set [6] worked out at 2. For the same compound, the selectivity ratio in data set [7] is more than 10.
For the compound `Cc1cc(NS(=O)(=O)c2ccc(N3C(=O)CSC3c3ccc(Cl)cc3)cc2)no1` (configuration not stated), the IC90 in data set [15] is 0.43 µg/mL (≈ 0.956 µM).
